From the supplement of paper PMC11061612

Tests used:
Assay in all cases: combination Emax (second highest fraction inhibited in the dose matrix, 72 h); higher = more inhibition; extreme values may be limits of the assay
[1] = tested on: AN3-CA (Endometrial Carcinoma)
Outline: (§1)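 Cell lines grown in DMEM/F12 or RPMI with 10% FBS were plated in 1536-well plates and held 24 hours at 37°C, 5% CO2 before 72 hours of exposure to two-drug dose matrices, with DMSO typically at 0.2%. CellTiter-Glo 2.0 luminescence gave viability, which was converted to inhibition. Vehicle wells were set to 0 and blank wells to 1. Combination Emax is the second-highest inhibition in the matrix, and Bliss excess is the observed combination effect minus the expected EA + EB − EA·EB, where EA and EB are the single-agent effects.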

[2] = tested on: RL95-2 (Endometrial Carcinoma)
Outline: as §1

[3] = tested on: PANC-02-03 (Pancreatic Carcinoma)
Outline: as §1

[4] = tested on: NKM-1 (Acute Myeloid Leukemia)
Outline: as §1

HuO-3N1 (Osteosarcoma) = tested on: HuO-3N1 (Osteosarcoma)
Outline: as §1

[5] = tested on: RERF-LC-KJ (Lung Adenocarcinoma)
Outline: as §1

[6] = tested on: CML-T1 (Chronic Myelogenous Leukemia)
Outline: as §1

ES-2 (Ovarian Carcinoma) = tested on: ES-2 (Ovarian Carcinoma)
Outline: as §1

[7] = tested on: OV-90 (Ovarian Carcinoma)
Outline: as §1

[8] = tested on: SJRH30 (Rhabdomyosarcoma)
Outline: as §1

[9] = tested on: HSC-3 (Oral Cavity Carcinoma)
Outline: as §1

786-0 (Kidney Carcinoma) = tested on: 786-0 (Kidney Carcinoma)
Outline: as §1

[10] = tested on: SW684 (Other Solid Carcinomas)
Outline: as §1

[11] = tested on: BALL-1 (B-Lymphoblastic Leukemia)
Outline: as §1

[12] = tested on: PC-14 (Lung Adenocarcinoma)
Outline: as §1

[13] = tested on: LOUCY (T-Lymphoblastic Leukemia)
Outline: as §1

[14] = tested on: NCI-H196 (Small Cell Lung Carcinoma)
Outline: as §1

[15] = tested on: LAMA-84 (Chronic Myelogenous Leukemia)
Outline: as §1

RT4 (Bladder Carcinoma) = tested on: RT4 (Bladder Carcinoma)
Outline: as §1

Row | SMILES | combination Emax [1] | combination Emax [2] | combination Emax [3] | combination Emax [4] | combination Emax (HuO-3N1 (Osteosarcoma)) | combination Emax [5] | combination Emax [6] | combination Emax (ES-2 (Ovarian Carcinoma)) | combination Emax [7] | combination Emax [8] | combination Emax [9] | combination Emax (786-0 (Kidney Carcinoma)) | combination Emax [10] | combination Emax [11] | combination Emax [12] | combination Emax [13] | combination Emax [14] | combination Emax [15] | combination Emax (RT4 (Bladder Carcinoma))
1 | NC1(C(=O)N[C@@H](CCO)c2ccc(Cl)cc2)CCN(c2ncnc3[nH]ccc23)CC1 [Capivasertib] + C[C@@H]1COCCN1C2=NC(=NC(=C2)C3(CC3)[S@](=N)(=O)C)C4=C5C=CNC5=NC=C4 [AZD6738] (first compound max 10 µM, 7x7, partner max 10 µM) | 0.849 | 0.886 | 0.474 | 0.933 | 0.592 | 0.478 | 0.988 | 0.86 | 0.614 | 0.89 | 0.764 | 0.809 | 0.587 | 1 | 0.854 | 0.979 | 0.408 | 0.941 | 0.577
2 | NC1(C(=O)N[C@@H](CCO)c2ccc(Cl)cc2)CCN(c2ncnc3[nH]ccc23)CC1 [Capivasertib] + Cn1cnc2c(F)c(Nc3ccc(Br)cc3Cl)c(C(=O)NOCCO)cc21 [Selumetinib] (first compound max 10 µM, 7x7, partner max 10 µM) | 0.815 | 1 | 0.572 | 0.965 | 0.439 | 0.436 | 0.828 | 0.616 | 0.627 | 0.769 | 0.786 | 0.696 | 0.626 | 0.478 | 0.834 | 0.66 | 0.281 | 0.977 | 0.45
3 | Cc1nc(Nc2ncc(C(=O)Nc3c(C)cccc3Cl)s2)cc(N2CCN(CCO)CC2)n1 [Dasatinib] + CC(=O)Nc1cccc(-n2c(=O)n(C3CC3)c(=O)c3c(Nc4ccc(I)cc4F)n(C)c(=O)c(C)c32)c1 [Trametinib] (first compound max 2 µM, 7x7, partner max 1 µM) | 0.491 | 0.405 | 0.836 | 0.899 | 0.493 | 0.436 | 0.966 | 0.86 | 0.752 | 0.157 | 0.867 | 0.642 | 0.609 | 0.257 | 1 | 0.344 | 0.103 | 1 | 0.822
4 | COc1cc2ncnc(Nc3ccc(F)c(Cl)c3)c2cc1OCCCN1CCOCC1 [Gefitinib] + CC(C)n1c(=O)n(C)c2cnc3cc(F)c(-c4ccc(OCCCN5CCCCC5)nc4)cc3c21 [AZD1390] (first compound max 10 µM, 7x7, partner max 0.3 µM) | 0.01 | 0.0606 | 0.266 | 0.167 | 0.0711 | 0.351 | 0.148 | 0.41 | 0.12 | 0 | 0.623 | 0.247 | 0.136 | 0.279 | 0.752 | 0.296 | 0.0162 | 0.315 | 0.128
5 | CS(=O)(=O)CCNCc1ccc(-c2ccc3ncnc(Nc4ccc(OCc5cccc(F)c5)c(Cl)c4)c3c2)o1 [Lapatinib] + C[C@@H](Oc1cc(-c2cnn(C3CCNCC3)c2)cnc1N)c1c(Cl)ccc(F)c1Cl [Crizotinib] (first compound max 10 µM, 7x7, partner max 10 µM) | 0.874 | 0.934 | 0.735 | 0.965 | 0.876 | 0.81 | 0.965 | 0.921 | 0.578 | 0.955 | 1 | 0.992 | 0.523 | 0.913 | 1 | 0.822 | 0.19 | 1 | 0.916
6 | CC(=O)c1c(C)c2cnc(Nc3ccc(N4CCNCC4)cn3)nc2n(C2CCCC2)c1=O [Palbociclib] + CC1(C)CCC(CN2CCN(c3ccc(C(=O)NS(=O)(=O)c4ccc(NCC5CCOCC5)c([N+](=O)[O-])c4)c(Oc4cnc5[nH]ccc5c4)c3)CC2)=C(c2ccc(Cl)cc2)C1 [Venetoclax] (first compound max 10 µM, 7x7, partner max 1 µM) | 0.255 | 0.226 | 0.148 | 0.946 | 0.146 | 0.117 | 0.932 | 0.501 | 0.0192 | 0.0832 | 0.359 | 0.411 | 0.147 | 1 | 0.204 | 1 | 0.0487 | 0.496 | 0.203
7 | CC(=O)c1c(C)c2cnc(Nc3ccc(N4CCNCC4)cn3)nc2n(C2CCCC2)c1=O [Palbociclib] + Cc1c2c(nn1C)CSCc1cc(n(C)n1)CSc1cc(c3ccccc3c1)OCCCc1c(C(=O)O)n(C)c3c-2c(Cl)ccc13 [AZD5991] (first compound max 10 µM, 7x7, partner max 1 µM) | 0.886 | 0.939 | 0.182 | 0.994 | 0.508 | 0.288 | 0.924 | 0.619 | 0.158 | 0.786 | 0.613 | 0.489 | 0.335 | 0.777 | 0.279 | 0.553 | 0.126 | 0.663 | 0.355
8 | CC(=O)c1c(C)c2cnc(Nc3ccc(N4CCNCC4)cn3)nc2n(C2CCCC2)c1=O [Palbociclib] + Cn1cnc2c(F)c(Nc3ccc(Br)cc3Cl)c(C(=O)NOCCO)cc21 [Selumetinib] (first compound max 10 µM, 7x7, partner max 10 µM) | 0.296 | 0.561 | 0.475 | 0.944 | 0.154 | 0.197 | 0.926 | 0.569 | 0.636 | 0.143 | 0.521 | 0.357 | 0.292 | 0.458 | 0.434 | 0.278 | 0.0806 | 0.945 | 0.45
9 | C[C@@H](c1ccc2nccn2c1)n1nnc2ncc(-c3cnn(C)c3)nc21 [Savolitinib] + CC1(C)CCC(CN2CCN(c3ccc(C(=O)NS(=O)(=O)c4ccc(NCC5CCOCC5)c([N+](=O)[O-])c4)c(Oc4cnc5[nH]ccc5c4)c3)CC2)=C(c2ccc(Cl)cc2)C1 [Venetoclax] (first compound max 1 µM, 7x7, partner max 1 µM) | 0.0904 | 0.085 | 0.157 | 0.545 | 0.181 | 0.15 | 0.279 | 0.137 | 0.133 | 0.126 | 0.107 | 0.159 | 0.231 | 1 | 0.177 | 0.976 | 0.128 | 0.172 | 0.12
10 | C[C@@H](c1ccc2nccn2c1)n1nnc2ncc(-c3cnn(C)c3)nc21 [Savolitinib] + Cc1c2c(nn1C)CSCc1cc(n(C)n1)CSc1cc(c3ccccc3c1)OCCCc1c(C(=O)O)n(C)c3c-2c(Cl)ccc13 [AZD5991] (first compound max 1 µM, 7x7, partner max 1 µM) | 0.308 | 0.577 | 0.13 | 0.976 | 0.35 | 0.301 | 0.228 | 0.176 | 0.185 | 0.464 | 0.206 | 0.183 | 0.161 | 0.612 | 0.148 | 0.46 | 0.173 | 0.234 | 0.25
11 | Cn1cnc2c(F)c(Nc3ccc(Br)cc3Cl)c(C(=O)NOCCO)cc21 [Selumetinib] + C=CCn1c(=O)c2cnc(Nc3ccc(N4CCN(C)CC4)cc3)nc2n1-c1cccc(C(C)(C)O)n1 [AZD1775] (first compound max 10 µM, partner max 1 µM) | 0.354 | 0.587 | 0.572 | 0.875 | 0.259 | 0.401 | 0.939 | 0.66 | 0.628 | 0.846 | 0.601 | 0.572 | 0.152 | 1 | 0.928 | 0.977 | 0.347 | 0.973 | 0.368
12 | Cn1cnc2c(F)c(Nc3ccc(Br)cc3Cl)c(C(=O)NOCCO)cc21 [Selumetinib] + CC(C)n1c(=O)n(C)c2cnc3cc(F)c(-c4ccc(OCCCN5CCCCC5)nc4)cc3c21 [AZD1390] (first compound max 10 µM, 7x7, partner max 0.3 µM) | 0.0572 | 0.372 | 0.414 | 0.504 | 0.129 | 0.2 | 0.628 | 0.377 | 0.598 | 0.0759 | 0.346 | 0.159 | 0.152 | 0.24 | 0.326 | 0.35 | 0.0904 | 0.926 | 0.257
13 | Cn1cnc2c(F)c(Nc3ccc(Br)cc3Cl)c(C(=O)NOCCO)cc21 [Selumetinib] + CCN(CCO)CCCOc1ccc2c(Nc3cc(CC(=O)Nc4cccc(F)c4)[nH]n3)ncnc2c1 [AZD2811] (first compound max 10 µM, 7x7, partner max 1 µM) | 0.268 | 0.87 | 0.475 | 0.758 | 0.181 | 0.289 | 0.765 | 0.488 | 0.606 | 0.253 | 0.512 | 0.208 | 0.277 | 0.477 | 0.587 | 0.909 | 0.0609 | 0.958 | 0.516
